Experimental data reported in article PMC6893645, “Baicalein as a Potential Inhibitor against BACE1 and AChE: Mechanistic Comprehension through In Vitro and Computational Approaches” (Nutrients, 2019).

Experiments:
BACE1 = test system: BACE1; design: method as in PMID 24291393; conditions: cited from earlier work
[1] = design: method as in doi:10.1016/j.arabjc.2017.08.002; conditions: chemical scavenging and cellular antioxidant ability among flavonoids of S. baicalensis; cited from earlier work
[2] = rat, oral S. baicalensis extract 30 mg/kg; cited from earlier work
[3] = humans, 2.8 mg single dose; cited from earlier work
human recombinant TACE = biological target: T1, human recombinant TACE (Homo sapiens, UniProt P78536); test: TACE fluorometric assay; assay type: biochemical
T1 construct: purchased R&D Systems (Minneapolis, MN, USA)
Experimental: A human recombinant TACE (0.1 ppm in 25 mM Tris buffer), the substrate (APP peptide […] using EDANS/DABCYL), and baicalein were dissolved in an assay buffer and then combined and incubated for 60 min in the dark at 25 °C.

chymotrypsin = biological target: T2, chymotrypsin (Bos taurus, UniProt P00766); test: Chymotrypsin colorimetric assay; assay type: biochemical
T2 construct: purchased Sigma-Aldrich (St. Louis, MO, USA)
Experimental: (§1) The colorimetric assays of AChE, trypsin, chymotrypsin, and elastase were carried out using acetylthiocholine iodide, […], and N-succinyl-Ala-Ala-Ala-pNA as substrates, respectively. The hydrolysis of AChE was monitored according to the formation of yellow 5-thio-2-nitrobenzoate anions at 405 nm for 15 min, which were produced by the reaction of DTNB with thiocholine released from ACh. All reactions were performed in 96-well plates in triplicate and recorded using a microplate spectrophotometer.
(§2) For trypsin, chymotrypsin, and elastase assays, enzyme, Tris-HCl buffer (0.05 M, in 0.02 M CaCl2, pH 8.2), and baicalein were incubated for 10 min at 25 °C; then, substrate was added for 30 min at 37 °C. The absorbance was recorded at 410 nm. The inhibition ratio was obtained using the following equation:Inhibition (%) = {[1 − (A − B)]/control} × 100 where A was the absorbance of the control (enzyme, assay buffer, and substrate) after 60 min of incubation, and B was the absorbance of tested sample (assay buffer and sample solution) after 60 min of incubation.

Tg2576 mice = test system: Tg2576 mice; design: method as in PMID 23686791; conditions: 10 mg/kg; cited from earlier work
[4] = test system: AlCl3-induced AD mouse model; conditions: cited from earlier work
APP/PS1 mice = conditions: 80 mg/kg; cited from earlier work
AChE = AChE (Electrophorus electricus, UniProt O42275); conditions: Dixon and Lineweaver–Burk plots
Experimental: The colorimetric assays of AChE, trypsin, chymotrypsin, and elastase were carried out using acetylthiocholine iodide, N-benzoyl-L-Tyr-pNA, N-benzoyl-L-Arg-pNA, and N-succinyl-Ala-Ala-Ala-pNA as substrates, respectively. […] All reactions were performed in 96-well plates in triplicate and recorded using a microplate spectrophotometer.
The inhibitory constant (Ki) was obtained by interpretation of the Dixon plot, and maximum reaction velocity (Vmax) and Michaelis–Menten constant (Km) values were determined by a Lineweaver–Burk plot, using the initial velocities obtained over a different substrate concentration ranges.

trypsin = test: Trypsin colorimetric assay; assay type: biochemical; conditions: for Inhibitory activity against Trypsin: mean ± SD
Experimental: as §1, §2

[5] = cited from earlier work
elastase = biological target: T3, elastase (Sus scrofa, UniProt P00772); test: Elastase colorimetric assay; assay type: biochemical
T3 construct: purchased Sigma-Aldrich (St. Louis, MO, USA)
Experimental: as §1, §2

T1 sequence (P78536 215-824): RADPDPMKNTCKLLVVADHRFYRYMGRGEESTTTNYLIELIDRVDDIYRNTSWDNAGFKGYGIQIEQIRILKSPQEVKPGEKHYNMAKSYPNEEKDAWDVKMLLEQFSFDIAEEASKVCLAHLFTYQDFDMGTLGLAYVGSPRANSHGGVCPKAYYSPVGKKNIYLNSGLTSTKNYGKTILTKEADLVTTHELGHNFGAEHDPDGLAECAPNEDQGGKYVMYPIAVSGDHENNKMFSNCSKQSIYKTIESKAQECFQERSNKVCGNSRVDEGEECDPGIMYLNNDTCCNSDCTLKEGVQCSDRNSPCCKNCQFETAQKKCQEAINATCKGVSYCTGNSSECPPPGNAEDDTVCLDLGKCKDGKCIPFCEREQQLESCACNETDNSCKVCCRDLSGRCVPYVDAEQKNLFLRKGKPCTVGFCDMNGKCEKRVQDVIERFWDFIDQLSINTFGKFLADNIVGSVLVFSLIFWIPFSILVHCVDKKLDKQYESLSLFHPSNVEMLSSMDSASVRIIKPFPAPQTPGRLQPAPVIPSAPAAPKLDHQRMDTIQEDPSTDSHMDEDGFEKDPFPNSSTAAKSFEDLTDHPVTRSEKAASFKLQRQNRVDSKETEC
T3 sequence (P00772 27-266): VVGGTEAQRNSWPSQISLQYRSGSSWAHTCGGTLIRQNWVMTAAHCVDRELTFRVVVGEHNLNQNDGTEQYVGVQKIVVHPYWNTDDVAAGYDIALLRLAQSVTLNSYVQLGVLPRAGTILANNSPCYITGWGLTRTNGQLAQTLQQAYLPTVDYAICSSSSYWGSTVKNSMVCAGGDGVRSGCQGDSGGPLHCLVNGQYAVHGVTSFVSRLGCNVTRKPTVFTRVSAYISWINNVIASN
Sequence of AChE (O42275 24-633): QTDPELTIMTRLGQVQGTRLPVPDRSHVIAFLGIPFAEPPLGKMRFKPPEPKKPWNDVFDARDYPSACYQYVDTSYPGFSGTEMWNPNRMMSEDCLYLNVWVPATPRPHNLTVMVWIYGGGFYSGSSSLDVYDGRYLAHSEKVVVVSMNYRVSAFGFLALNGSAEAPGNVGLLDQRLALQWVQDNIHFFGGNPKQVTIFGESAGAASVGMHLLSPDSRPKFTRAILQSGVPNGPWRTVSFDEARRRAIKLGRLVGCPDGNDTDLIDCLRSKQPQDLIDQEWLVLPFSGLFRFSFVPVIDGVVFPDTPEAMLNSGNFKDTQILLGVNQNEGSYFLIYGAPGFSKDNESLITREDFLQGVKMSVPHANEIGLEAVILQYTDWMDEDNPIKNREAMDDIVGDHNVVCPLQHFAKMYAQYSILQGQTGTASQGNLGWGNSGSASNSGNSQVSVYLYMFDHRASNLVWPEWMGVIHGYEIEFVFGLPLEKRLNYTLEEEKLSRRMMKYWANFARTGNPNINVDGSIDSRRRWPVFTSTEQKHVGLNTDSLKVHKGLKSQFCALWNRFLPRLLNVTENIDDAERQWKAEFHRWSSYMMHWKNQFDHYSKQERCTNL

O=c1cc(-c2ccc(O)cc2)oc2cc(O)cc(O)c12 [Apigenin, 4′,5,7-trihydroxyflavone]
IC50 (BACE1): > 100 µM

O=c1cc(-c2ccccc2)oc2cc(O)cc(O)c12 [Chrysin, reference compound]
Antioxidant ability [1]: much weaker antioxidant ability

O=c1cc(-c2ccccc2)oc2cc(O)c(O)c(O)c12 [Baicalein, 5,6,7-trihydroxyflavone]
Brain-to-plasma ratio compared with baicalin [2]: twenty times higher
Toxicity after single-dose administration [3]: no signs of toxicity
inhibition at 50 µM (human recombinant TACE; baicalein 50 μM, mean ± SD, read-out: Inhibitory activity against TACE): 8.31 ± 0.89%
inhibition at 100 µM (human recombinant TACE; baicalein 100 μM, mean ± SD, read-out: Inhibitory activity against TACE): 9.45 ± 0.71%
Inhibitory activity against TACE (in words) (human recombinant TACE; up to 100 µM): no significant inhibitory activity
inhibition at 50 µM (chymotrypsin; baicalein 50 μM, mean ± SD, read-out: Inhibitory activity against Chymotrypsin): 8.42 ± 0.76%
inhibition at 100 µM (chymotrypsin; baicalein 100 μM, mean ± SD, read-out: Inhibitory activity against Chymotrypsin): 4.48 ± 0.76%
Inhibitory activity against chymotrypsin (in words) (chymotrypsin; up to 100 µM): no significant inhibitory activity
Cognitive performance (Tg2576 mice): significantly improves
Behavioral dysfunction [4]: improved
LOX and GSK3β activity (APP/PS1 mice): inhibits LOX and GSK3β activity
Antioxidant ability [1]: most powerful antioxidant effect
AChE Inhibition Type (AChE): Competitive
Inhibitory activity against Trypsin (trypsin; baicalein 50 μM): 3.40 ± 0.76%
Inhibitory activity against Trypsin (trypsin; baicalein 100 μM): −6.95 ± 0.87%
Inhibitory activity against trypsin (in words) (trypsin; up to 100 µM): no significant inhibitory activity
Time to cross the BBB after administration ([5]; 30 mg/kg): about half an hour
BBB penetration ([5]; rat, 30 and 60 mg/kg through the femoral vein): rapidly penetrated the BBB
inhibition at 50 µM (elastase; baicalein 50 μM, mean ± SD, read-out: Inhibitory activity against Elastase): 10.3 ± 1.04%
inhibition at 100 µM (elastase; baicalein 100 μM, mean ± SD, read-out: Inhibitory activity against Elastase): 9 ± 0.45%
Inhibitory activity against elastase (in words) (elastase; up to 100 µM): no significant inhibitory activity
